In this test the target is T1, VPAC1 (Homo sapiens, UniProt P32241).
T1 construct: expressed in transfected cells; host or cells: CHO
T1 sequence (P32241 31-457): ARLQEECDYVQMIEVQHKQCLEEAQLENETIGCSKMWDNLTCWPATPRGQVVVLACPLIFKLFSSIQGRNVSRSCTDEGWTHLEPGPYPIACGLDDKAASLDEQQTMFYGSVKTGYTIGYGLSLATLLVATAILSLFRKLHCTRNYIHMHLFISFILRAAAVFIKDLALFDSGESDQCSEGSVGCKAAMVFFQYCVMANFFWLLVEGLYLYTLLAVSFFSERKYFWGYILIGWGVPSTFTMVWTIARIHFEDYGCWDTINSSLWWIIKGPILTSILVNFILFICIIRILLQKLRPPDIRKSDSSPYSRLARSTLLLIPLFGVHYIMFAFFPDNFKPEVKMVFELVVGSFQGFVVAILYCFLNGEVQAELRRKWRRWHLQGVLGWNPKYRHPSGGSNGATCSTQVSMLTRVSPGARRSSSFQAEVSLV
Nature of the test: Elevation of cAMP, agonist activity on VPAC1. In kind it is cell-based. Conditions: FIG. 3. From the text:
The signal is detected using a scintillation counter.

Turning to PACAP-27, the “agonist activity on VPAC1” value is on record as “potent agonist”.
